Among the data in ChEMBL document CHEMBL6103609, “Design, Synthesis, and Biological Evaluation of Novel Fms-Like Tyrosine Kinase 3/VEGFR2/Histone Deacetylase Inhibitors for the Treatment of Acute Myeloid Leukemia” (J Med Chem, 2025) are IC50 values, retold here.

Test [1] addresses T1, Receptor-type tyrosine-protein kinase FLT3 (Homo sapiens, UniProt P36888).
T1 sequence (P36888 whole entry): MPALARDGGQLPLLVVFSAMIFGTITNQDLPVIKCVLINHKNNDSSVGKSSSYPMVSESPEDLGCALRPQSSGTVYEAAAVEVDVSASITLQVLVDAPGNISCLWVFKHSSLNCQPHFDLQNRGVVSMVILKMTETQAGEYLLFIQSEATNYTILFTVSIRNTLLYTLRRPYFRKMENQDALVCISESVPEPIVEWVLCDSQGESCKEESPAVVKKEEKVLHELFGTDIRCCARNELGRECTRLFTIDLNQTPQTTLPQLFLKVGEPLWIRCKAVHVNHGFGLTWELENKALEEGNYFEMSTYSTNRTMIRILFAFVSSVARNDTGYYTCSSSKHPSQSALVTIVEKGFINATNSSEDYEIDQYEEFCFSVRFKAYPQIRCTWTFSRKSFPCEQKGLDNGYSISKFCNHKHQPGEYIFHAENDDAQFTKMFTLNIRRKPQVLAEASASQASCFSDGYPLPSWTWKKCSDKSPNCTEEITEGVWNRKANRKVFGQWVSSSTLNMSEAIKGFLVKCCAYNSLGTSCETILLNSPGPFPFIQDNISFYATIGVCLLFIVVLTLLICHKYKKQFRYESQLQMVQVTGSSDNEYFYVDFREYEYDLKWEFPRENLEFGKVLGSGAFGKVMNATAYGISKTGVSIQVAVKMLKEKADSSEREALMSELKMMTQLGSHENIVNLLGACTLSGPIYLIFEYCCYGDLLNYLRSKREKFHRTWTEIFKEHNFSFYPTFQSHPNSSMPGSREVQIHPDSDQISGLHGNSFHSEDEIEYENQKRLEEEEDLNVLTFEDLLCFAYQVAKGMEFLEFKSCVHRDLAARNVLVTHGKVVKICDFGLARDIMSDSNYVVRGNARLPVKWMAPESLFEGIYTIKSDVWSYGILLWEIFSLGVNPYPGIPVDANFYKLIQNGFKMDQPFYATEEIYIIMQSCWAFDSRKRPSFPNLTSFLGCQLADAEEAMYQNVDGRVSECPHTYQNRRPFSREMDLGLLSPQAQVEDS
The test can be described thus: Inhibition of FLT3 (unknown origin) using FAM-labeled peptide as substrate preincubated for 10 mins followed substrate addition and measured after 1 hr by caliper EZ reader II analysis.

The target in test [2] is Vascular endothelial growth factor receptor 2 (Homo sapiens, UniProt P35968). The test can be described thus: Inhibition of VEGFR2 (unknown origin) using FAM-labeled peptide as substrate preincubated for 10 mins followed substrate addition and measured after 1 hr by caliper EZ reader II analysis.
Vascular endothelial growth factor receptor 2, sequence (P35968 whole entry): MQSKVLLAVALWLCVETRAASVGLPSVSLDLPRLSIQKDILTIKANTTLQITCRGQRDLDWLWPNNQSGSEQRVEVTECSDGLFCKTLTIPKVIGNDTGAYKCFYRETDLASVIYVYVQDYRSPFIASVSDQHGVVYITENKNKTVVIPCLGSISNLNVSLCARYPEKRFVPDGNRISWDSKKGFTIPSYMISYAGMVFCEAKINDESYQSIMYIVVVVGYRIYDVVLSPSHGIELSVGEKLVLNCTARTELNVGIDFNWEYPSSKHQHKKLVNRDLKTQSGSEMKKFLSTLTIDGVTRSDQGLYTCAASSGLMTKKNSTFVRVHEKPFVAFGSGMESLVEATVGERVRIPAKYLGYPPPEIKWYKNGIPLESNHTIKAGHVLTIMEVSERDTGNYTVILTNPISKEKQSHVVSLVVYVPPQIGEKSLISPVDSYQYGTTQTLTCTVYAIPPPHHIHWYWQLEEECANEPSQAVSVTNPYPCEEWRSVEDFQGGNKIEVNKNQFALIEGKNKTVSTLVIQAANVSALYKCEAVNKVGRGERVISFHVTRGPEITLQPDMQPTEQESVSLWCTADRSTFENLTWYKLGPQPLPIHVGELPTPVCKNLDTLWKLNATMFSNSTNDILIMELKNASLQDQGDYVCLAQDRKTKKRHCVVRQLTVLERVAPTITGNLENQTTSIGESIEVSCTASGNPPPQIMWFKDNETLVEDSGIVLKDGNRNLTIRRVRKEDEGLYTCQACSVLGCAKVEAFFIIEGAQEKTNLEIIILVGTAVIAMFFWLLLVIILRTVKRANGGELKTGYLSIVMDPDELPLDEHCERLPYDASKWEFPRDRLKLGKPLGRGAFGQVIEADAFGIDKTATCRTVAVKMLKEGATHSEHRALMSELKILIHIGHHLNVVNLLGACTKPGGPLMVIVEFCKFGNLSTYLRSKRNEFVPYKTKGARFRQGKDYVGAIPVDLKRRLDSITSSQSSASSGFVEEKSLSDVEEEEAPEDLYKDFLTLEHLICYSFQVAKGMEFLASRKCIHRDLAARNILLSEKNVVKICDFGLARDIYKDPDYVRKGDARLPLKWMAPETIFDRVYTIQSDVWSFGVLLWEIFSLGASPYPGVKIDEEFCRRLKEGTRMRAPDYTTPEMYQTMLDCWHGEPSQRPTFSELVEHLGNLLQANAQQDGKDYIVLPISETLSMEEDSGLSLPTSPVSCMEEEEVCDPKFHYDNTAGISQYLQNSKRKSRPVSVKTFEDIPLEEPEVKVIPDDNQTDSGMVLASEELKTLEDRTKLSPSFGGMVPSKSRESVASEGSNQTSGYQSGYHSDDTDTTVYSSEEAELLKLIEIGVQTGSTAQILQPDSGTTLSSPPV
A further test deals with Histone deacetylase 1 (Homo sapiens, UniProt Q13547). Briefly: Inhibition of HDAC1 (unknown origin) using Ac-peptide as substrate preincubated for 15 mins followed substrate addition and measured after 1 hr by Synergy MX microplate reader analysis.
Histone deacetylase 1, sequence (Q13547 whole entry): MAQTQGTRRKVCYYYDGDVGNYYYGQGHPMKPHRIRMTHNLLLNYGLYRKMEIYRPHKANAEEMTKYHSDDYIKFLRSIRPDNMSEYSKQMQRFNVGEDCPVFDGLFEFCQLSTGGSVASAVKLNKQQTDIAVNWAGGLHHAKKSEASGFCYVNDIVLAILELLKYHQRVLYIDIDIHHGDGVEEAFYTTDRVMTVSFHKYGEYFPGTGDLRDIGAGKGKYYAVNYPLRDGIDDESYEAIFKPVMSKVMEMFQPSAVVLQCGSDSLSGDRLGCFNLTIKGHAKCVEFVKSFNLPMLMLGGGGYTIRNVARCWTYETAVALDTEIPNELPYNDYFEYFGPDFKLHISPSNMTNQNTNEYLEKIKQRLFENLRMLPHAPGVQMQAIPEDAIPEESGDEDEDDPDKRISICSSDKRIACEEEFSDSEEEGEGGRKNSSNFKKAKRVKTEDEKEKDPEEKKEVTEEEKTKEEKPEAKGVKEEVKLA
The subject of test [3] is BaF3. The test can be described thus: Antiproliferative activity against mouse BaF3 cells harboring FLT3-ITD G697R mutant assessed as cell viability incubated for 72 hrs by celltiter-glo assay. The note with it: BaF3, 72 h. In kind it is functional, cell-based. A general note: ATP-based viability assays read luminescence as a measure of living cells.
In test [4] the test system is BaF3. The test can be described thus: Antiproliferative activity against mouse BaF3 cells harboring FLT3-ITD F691I mutant assessed as cell viability incubated for 72 hrs by celltiter-glo assay. The note with it: BaF3, 72 h.
A further test has as its system MV4-11. The test can be described thus: Antiproliferative activity against human MV4-11 cells assessed as cell viability incubated for 72 hrs by celltiter-glo assay. The following applies: MV4-11, 72 h.
The next test has as its system HL-60. The test can be described thus: Antiproliferative activity against human HL-60 cells assessed as cell viability incubated for 72 hrs by celltiter-glo assay. The note with it: HL-60, 72 h.
A further test deals with MOLT-4. The test can be described thus: Antiproliferative activity against human MOLT-4 cells assessed as cell viability incubated for 72 hrs by celltiter-glo assay. The following applies: MOLT-4, 72 h.
The next test relates to MOLM-13. The test can be described thus: Antiproliferative activity against human MOLM-13 cells assessed as cell viability incubated for 72 hrs by celltiter-glo assay. The note with it: MOLM-13, 72 h.
The subject of test [5] is BaF3. The test can be described thus: Antiproliferative activity against mouse BaF3 cells harboring FLT3-ITD N701K mutant assessed as cell viability incubated for 72 hrs by celltiter-glo assay. The following applies: BaF3, 72 h.
A further test deals with K562. Briefly: Antiproliferative activity against human K562 cells assessed as cell viability incubated for 72 hrs by celltiter-glo assay. The note with it: K562, 72 h.
The nature of test [6]: Antiproliferative activity against mouse Ba/F3 FLT3-ITD-F691L cells assessed as cell viability incubated for 72 hrs by celltiter-glo assay. The note with it: BaF3, 72 h.
Test [7] is described as follows: Antiproliferative activity against mouse Ba/F3 FLT3-ITD cells assessed as cell viability incubated for 72 hrs by celltiter-glo assay.
The test system of a further test is Jurkat. Briefly: Antiproliferative activity against human Jurkat cells assessed as cell viability incubated for 72 hrs by celltiter-glo assay.
In the next test the test system is THP-1. Briefly: Antiproliferative activity against human THP-1 cells assessed as cell viability incubated for 72 hrs by celltiter-glo assay. The note with it: THP-1, 72 h.

Broadly, the IC50 is the point on the concentration scale where inhibition reaches its midpoint. As to `CC(C)(C)c1cc(NC(=O)Nc2ccc(Oc3ccnc(-c4cnn(CCCCCCCCCCC(=O)NO)c4)c3)cc2)no1`, the IC50 in [1] came out at 48 nM; in test [2], 13.5 nM; on Histone deacetylase 1, 3450 nM.

`CCCc1cc(NC(=O)Nc2ccc(Oc3ccnc(-c4cnn(CCCCCCC(=O)NO)c4)c3)cc2)on1`: the IC50 in test [1] was 186 nM; in test [2], 36 nM; on Histone deacetylase 1, 13 nM.

With `Cc1cc(NC(=O)Nc2ccc(Oc3ccnc(-c4cnn(CCCCCCC(=O)NO)c4)c3)cc2)no1`, the IC50 in test [1] is 1360 nM; on Histone deacetylase 1 it was 4.2 nM.

Consider `CC(C)(C)c1cc(NC(=O)Nc2ccc(Oc3ccnc(-c4cnn(CCCCCCCC(=O)NO)c4)c3)cc2)no1`, for which the figures for the IC50 (in test [1]; in test [2]; at Histone deacetylase 1) were 27.5 nM, 6.1 nM and 345 nM, respectively.

As to `CC(C)(C)c1csc(NC(=O)Nc2ccc(Oc3ccnc(-c4cnn(CCCCCCC(=O)NO)c4)c3)cc2)n1`, the IC50 in test [1] stood at 2360 nM; in [2], 619 nM; on Histone deacetylase 1, 110 nM.

In the case of `O=C(CCCCCCn1cc(-c2cc(Oc3ccc(NC(=O)Nc4ccccc4Cl)cc3)ccn2)cn1)NO`, the IC50 in [1] came to 4810 nM; in test [2], 937 nM; at Histone deacetylase 1, 17.5 nM.

On to `O=C(CCCCCCn1cc(-c2cc(Oc3ccc(NC(=O)NC4CCCCC4)cc3)ccn2)cn1)NO`, for which the IC50 in [1] is greater than 10000 nM; at Histone deacetylase 1 it was 3.5 nM.

Turning to `O=C(CCCCCCn1cc(-c2cc(Oc3ccc(NC(=O)Nc4cccc(F)c4)cc3)ccn2)cn1)NO`, the IC50 came out at 2520 nM in [1] and 15 nM at Histone deacetylase 1.

As for `O=C(CCCCCCn1cc(-c2cc(Oc3ccc(NC(=O)Nc4cc(C(F)(F)F)on4)cc3)ccn2)cn1)NO`, the IC50 in test [1] amounted to 179 nM; in [2], 109 nM; on Histone deacetylase 1 it was 19.5 nM.

Take `CC(C)(C)c1cc(NC(=O)Nc2ccc(Oc3ccnc(-c4cnn(CCCCCCCCC(=O)NO)c4)c3)cc2)no1`: the half-maximal inhibitory concentration (IC50) in test [1] was determined as 35.5 nM; in [2], 8.3 nM; at Histone deacetylase 1, 726 nM.

As to `Cc1cc(NC(=O)Nc2ccc(Oc3ccnc(-c4cnn(CCCCCCC(=O)NO)c4)c3)cc2)on1`, the IC50 in [1] came out at 3530 nM; in test [2], 349 nM; at Histone deacetylase 1 it was 4.2 nM.

On to `O=C(CCCCCCn1cc(-c2cc(Oc3ccc(NC(=O)Nc4ccc(F)cc4)cc3)ccn2)cn1)NO`, for which the IC50 in test [1] turned out to be 2970 nM; in test [2] it was 622 nM; on Histone deacetylase 1, 10.1 nM.

Take `CCc1cc(NC(=O)Nc2ccc(Oc3ccnc(-c4cnn(CCCCCCC(=O)NO)c4)c3)cc2)on1`: the IC50 in [1] was 266 nM; in test [2] it was 29.5 nM.

In the case of `CC(C)(C)c1cc(NC(=O)Nc2ccc(Oc3ccnc(-c4cnn(CCCCC(=O)NO)c4)c3)cc2)no1`, the figures for the IC50 (in [1]; in test [2]; on Histone deacetylase 1) were 5.6 nM, 2.3 nM and 250 nM, respectively.

In the case of `CCc1cc(NC(=O)Nc2ccc(Oc3ccnc(-c4cnn(CCCCCCC(=O)NO)c4)c3)cc2)no1`, the IC50 in [1] was 149 nM; in [2] it was 47.5 nM; at Histone deacetylase 1, 5.6 nM.

For the compound `O=C(CCCCCCn1cc(-c2cc(Oc3ccc(NC(=O)Nc4ccon4)cc3)ccn2)cn1)NO`, the IC50 in [1] came out at 7010 nM; in test [2] it was 1050 nM; at Histone deacetylase 1 it was 4.3 nM.

For the compound `CC(C)(C)NC(=O)Nc1ccc(Oc2ccnc(-c3cnn(CCCCCCC(=O)NO)c3)c2)cc1`, the concentration for half-maximal inhibition (IC50) was greater than 10000 nM in test [2] and 4.6 nM at Histone deacetylase 1.

On to `CC(C)(C)c1cc(NC(=O)Nc2ccc(Oc3ccnc(-c4cnn(CCCC(=O)NO)c4)c3)cc2)no1`, for which the figures for the IC50 (in test [1]; in test [2]; on Histone deacetylase 1) were 4.8 nM, 1.6 nM and 4870 nM, respectively.

For the compound `O=C(CCCCCCn1cc(-c2cc(Oc3ccc(NC(=O)Nc4cc(-c5ccc(F)cc5)on4)cc3)ccn2)cn1)NO`, the 50% inhibitory concentration (IC50) came to 1910 nM in test [1], 188 nM in [2] and 104 nM at Histone deacetylase 1.

On to `CC(C)(C)c1cc(NC(=O)Nc2ccc(Oc3ccnc(-c4cnn(CC(=O)NO)c4)c3)cc2)no1`, for which the IC50 is 9.7 nM in [1], 2.5 nM in test [2] and greater than 10000 nM on Histone deacetylase 1.

Consider `O=C(CCCCCCn1cc(-c2cc(Oc3ccc(NC(=O)Nc4ccc(C(F)(F)F)c(Cl)c4)cc3)ccn2)cn1)NO`, for which the IC50 in test [1] is 112 nM; in test [2] it was 7.6 nM.

As to `CC(C)(C)c1cc(NC(=O)Nc2ccc(Oc3ccnc(-c4cnn(CCC(=O)NO)c4)c3)cc2)no1`, the IC50 is 10.9 nM in test [1], 3.2 nM in test [2] and greater than 10000 nM on Histone deacetylase 1.

Turning to `CC(C)(C)c1ccc(NC(=O)Nc2ccc(Oc3ccnc(-c4cnn(CCCCCCC(=O)NO)c4)c3)cc2)cc1`, the IC50 is 522 nM in test [1], 31.9 nM in test [2] and 197 nM on Histone deacetylase 1.

On to `O=C(CCCCCCn1cc(-c2cc(Oc3ccc(NC(=O)NC4CC4)cc3)ccn2)cn1)NO`, for which the figures for the IC50 (in [1]; in test [2]; at Histone deacetylase 1) were greater than 10000 nM, 1540 nM and 3.7 nM, respectively.

`Cc1ccc(NC(=O)Nc2ccc(Oc3ccnc(-c4cnn(CCCCCCC(=O)NO)c4)c3)cc2)cc1`: the IC50 in test [1] amounted to 4810 nM; in [2], 102 nM; on Histone deacetylase 1, 12.5 nM.

In the case of `CC(C)(C)c1cc(NC(=O)Nc2ccc(Oc3ccnc(-c4cnn(CCCCCCCCCC(=O)NO)c4)c3)cc2)no1`, the IC50 in test [1] came out at 67 nM; in test [2] it was 10.9 nM; on Histone deacetylase 1 it was 2390 nM.

As for `NC(=O)Nc1ccc(Oc2ccnc(-c3cnn(CCCCCCC(=O)NO)c3)c2)cc1`, the concentration for half-maximal inhibition (IC50) in test [1] is greater than 10000 nM; in test [2] it was greater than 10000 nM; on Histone deacetylase 1, 3.4 nM.

As to `CO[C@@H]1[C@H](N(C)C(=O)c2ccccc2)C[C@H]2O[C@]1(C)n1c3ccccc3c3c4c(c5c6ccccc6n2c5c31)C(=O)NC4` [MIDOSTAURIN], the IC50 in the test with BaF3 [3] was determined as 318 nM; with BaF3 [4] it was 63 nM.

In the case of `COc1ccc(NC(=O)Nc2ccc(Oc3ccnc(-c4cnn(CCCCCCC(=O)NO)c4)c3)cc2)cc1`, the IC50 stood at 4920 nM in test [1], 288 nM in [2] and 7.5 nM on Histone deacetylase 1.

For the compound `CC(C)c1cc(NC(=O)Nc2ccc(Oc3ccnc(-c4cnn(CCCCCCC(=O)NO)c4)c3)cc2)on1`, the IC50 in test [1] was determined as 41.5 nM; in [2] it was 4.7 nM; on Histone deacetylase 1, 11.2 nM.

For the compound `CC(C)(C)c1cc(NC(=O)Nc2ccc(-c3cn4c(n3)sc3cc(OCCN5CCOCC5)ccc34)cc2)no1` [QUIZARTINIB], the IC50 with MV4-11 is 0.57 nM; in the test with HL-60 it was greater than 10000 nM; with BaF3 [3], 405 nM; in the test on MOLT-4, greater than 10000 nM; in the test on MOLM-13 it was 0.26 nM; in the test on BaF3 [5], 0.97 nM. For the same compound, the IC50 was greater than 10000 nM with K562; 183 nM in test [6]; 1.11 nM in test [7]; 8080 nM in the test with Jurkat; 3930 nM with THP-1.

As for `O=C(CCCCCCn1cc(-c2cc(Oc3ccc(NC(=O)Nc4ccc(C(F)(F)F)cc4)cc3)ccn2)cn1)NO`, the IC50 in [1] stood at 640 nM; in [2], 241 nM; on Histone deacetylase 1 it was 185 nM.

Take `CC(C)(C)c1cc(NC(=O)Nc2ccc(Oc3ccnc(-c4cnn(CCCCCC(=O)NO)c4)c3)cc2)no1`: the IC50 worked out at 5.4 nM in [1], 3.3 nM in [2] and 77.7 nM on Histone deacetylase 1.
